Assay results: PMC10754745, “In silico prediction and in vitro assessment of novel heterocyclics with antimalarial activity” (Parasitology Research, 2023)

Assays:
P. falciparum 3D7 = experiment: Growth inhibition of P. falciparum 3D7 cultures, SYBR Green assay; format: cell-based, Plasmodium falciparum; details: P. falciparum 3D7, 72 h, triplicate
Protocol: Antimalarial activity of the selected compounds was assessed by growth inhibition assays. P. falciparum 3D7 parasites (a chloroquine-sensitive strain) kindly supplied by the Biodefense and Emerging Infections Research Resources Repository (BEI resources, NIAID, NIH, USA) were cultured by the Trager-Jensen method (Trager and Jensen [1976]; Moll et al. [2013]) with modifications. Briefly, parasite-infected red blood cells (RBCs) were kept in continuous culture in complete culture medium (CCM) containing RPMI 1640 (GIBCO), 25 mM hydroxypipazine-N’-2-ethane sulfonic acid (HEPES, Sigma), and 25 μg/mL gentamicin. […] [2013]). Parasite growth was monitored by preparing Giemsa-stained smears. The parasitemia was determined by examination of at least 10 high power magnification fields (hpf) (Moll et al. [2013]), and levels of parasitemia were kept between 5 and 10%. Artemisinin (Sigma) and chloroquine diphosphate salt (Sigma) were used as control drugs. […] Susceptibility assays were performed by the SYBR Green method with modifications (Kato et al. [2018]). Briefly, P. falciparum-infected RBCs cultured under standard conditions were plated at about 2% parasitemia (2% hematocrit), in 96-well microplates, and 10 μM of each compound was added; the final DMSO concentration was less than 0.1%. Parasites were initially incubated for 72 h before addition of lysis buffer (20mM Tris-HCl, 5mM EDTA, 0.008% saponin, 0.08% Triton X-100) supplemented with 0.04% SYBR™ Green I Nucleic Acid (10,000 × in DMSO, Invitrogen), then the microplates were returned to culture for 4 h at room temperature and read in a microplate fluorimeter (Cytation 3 M, Biotek) at excitation 485 nm–emission 530 nm. A control drug for total growth inhibition, a non-drug well and uninfected RBCs were included as positive and negative controls, respectively. The percentage (%) of inhibition was calculated as follows: 1-(fluorescence of treated/nontreated cultures) × 100. […] To do this, parasite cultures were exposed to serial two-fold dilutions of the test compounds ranging from 10 to 0.078 μM. Controls of uninfected RBCs and CQ-treated infected RBCs were included, and the assays were performed in triplicate.

human RBCs = experiment: Hemolytic activity test; format: cell-based; details: human RBCs 2% hematocrit, 72 h, 37 °C, tested at 200, 100, 50, 25 μM
Protocol: The ability to induce membrane damage was assessed by testing the hemolytic activity of those compounds showing inhibition of parasite growth. The assay was adapted from Sousa et al. ([2021]) with modifications. Briefly, 180 μL of human RBCs adjusted to 2% hematocrit in phosphate buffered saline (PBS) were placed into a 96-well microplate and subsequently exposed to 200 μM of each selected compound. As a positive control, 20 μL of 1% sodium dodecyl sulfate (SDS) was added, and a non-drug well was included as a negative control. Free hemoglobin was measured after 72 h of incubation at 37 °C by spectrophotometry at 540 nm (Cytation 3 M, Biotek). Nonspecific absorbance was corrected by subtracting the blank (PBS). Determinations were done by triplicate in at least two independent experiments. Compounds with hemolytic activity at 200 μM were further tested at 100 μM, 50 μM, and 25 μM dilutions.

[1] = In vivo toxicity in Galleria mellonella larvae; set-up: G. mellonella Toxicity class: scale not given here; details: Galleria mellonella, in vivo, other: injection; larvae, injection, survival monitored 5 days; read-out: G. mellonella LD50
Protocol: (§1) In vivo toxicity was performed using the invertebrate Galleria mellonella model. Healthy, beige larvae weighing 200–250 mg were obtained from the Entomology laboratory at the University and selected for toxicity assays. Groups of ten six-instar larvae were inoculated with 10 μL or 20 μL of each compound at concentrations equivalent to 3000 mg/kg and incubated at 37 °C in darkness. […] The larvae were initially injected with 1000 mg/kg, and if most larvae (> 60%) survived after 5 days, the assay was performed using higher doses up to 3000 mg/kg (Piatek et al. [2021]).

Galleria mellonella = experiment: In vivo toxicity in Galleria mellonella larvae; set-up: G. mellonella Toxicity class: scale not given here; details: class from LD50 in larvae
Protocol: as §1

P. falciparum = test system: P. falciparum; set-up: method as in Shahinas et al. [2013]; details: in vitro against P. falciparum; ref Shahinas et al. [2013]; cited from earlier work
[2] = Plasmodium falciparum, 3D7, 72 h

SMILES | IC50 (P. falciparum 3D7) [nM] | IC50 (P. falciparum 3D7; [2]) [nM] | Hemolytic activity (human RBCs) | LD50 at 5 days [1] [mg/kg] | G. mellonella Toxicity class (Galleria mellonella) | IC50 (P. falciparum 3D7; listed as 7) [nM] | Hemolytic activity (human RBCs; listed as 296) [µM] | IC50 (P. falciparum 3D7; listed as 286) [nM] | IC50 (P. falciparum 3D7; listed as 712) [nM] | IC50 (P. falciparum) [nM]
Cc1ccc(C2CC(c3cccc(Nc4ccncc4)c3)=Nc3c(N)nc(N)nc3N2)cc1 (stereo not drawn) [UV801, Pyridyl-amino- pyrimido- diazepine] | 537 ± 30 | < 1000 | >200 µM | 2000 | 5 |  |  |  |  | 
O=C(/C=C/c1cccc(Nc2ccnc3cc(Cl)ccc23)c1)c1ccc2c(c1)OCO2 [UV7, Quinolinyl-amino chalcone] | ~1000 | > 1000 | > 200 µM | 2000 | 5 | 1070 ± 200 |  |  |  | 
COc1ccc(C2CC(c3cccc(Nc4ccncc4)c3)=NN2c2ccccc2)cc1 (stereo not drawn) [UV296] | 629 ± 100 | < 1000 | induced RBC hemolysis at lower concentrations | 2000 | 5 |  | >25 |  |  | 
CC(=O)N1N=C(c2cccc(Nc3ccncc3)c2)CC1c1ccc(Br)cc1 (stereo not drawn) [UV286] | < 1000 |  | >200 µM | 1500 | 4 |  |  | 444 ± 100 |  | 
COc1ccc(C2CC(c3cccc(Nc4ccncc4)c3)=NN2C(C)=O)cc1 (stereo not drawn) [UV287] |  | 1580 to 2750 |  |  |  |  |  |  |  | 
CC(=O)N1N=C(c2cccc(Nc3ccncc3)c2)CC1c1ccc(Cl)cc1 (stereo not drawn) [UV285] |  | 1580 to 2750 |  |  |  |  |  |  |  | 
Nc1ncnc2c1N=C(c1cccc(Nc3ccncc3)c1)CC(c1ccccc1)N2 (stereo not drawn) [UV712, Pyridyl-amino-pyrimido-diazepine] | ~1000 | > 1000 | >200 µM | 1000 | 4 |  |  |  | 1080 ± 200 | 
Clc1ccc(N2N=C(c3cccc(Nc4ccncc4)c3)CC2c2ccc3c(c2)OCO3)cc1 (stereo not drawn) [UV306, 4-(pyridyl-aminophenyl)-methyledioxyphenyl-N-(4-chlorophenyl)pyrazoline] | 710 ± 100 | < 1000 | 25 µM | 2000 | 5 |  |  |  |  | 
Nc1nc(N)c2c(n1)NC(c1ccccc1)CC(c1cccc(Nc3ccncc3)c1)=N2 (stereo not drawn) [UV802, Pyridyl-amino-pyrimido-diazepina] | 178 ± 40 |  | > 200 µM | 2000 | 5 |  |  |  |  | 
CC(=O)N1N=C(c2cccc(Nc3ccncc3)c2)CC1c1ccc(F)cc1 (stereo not drawn) [UV288] |  | 1580 to 2750 |  |  |  |  |  |  |  | 
CC(=O)N1N=C(c2cccc(Nc3ccncc3)c2)CC1c1ccc(C)cc1 (stereo not drawn) [UV291] |  | 1580 to 2750 |  |  |  |  |  |  |  | 
COc1cc(C2CC(c3cccc(Nc4ccncc4)c3)=NN2c2ccccc2)cc(OC)c1OC (stereo not drawn) [UV297] | 991 ± 280 | < 1000 | >200 µM | 2000 | 5 |  |  |  |  | 
CC(=O)N1N=C(c2cccc(Nc3ccncc3)c2)CC1c1ccc2c(c1)OCO2 (stereo not drawn) [UV290] |  | 1580 to 2750 |  |  |  |  |  |  |  | 
CC(C)NCCCn1c(Sc2cc3c(cc2I)OCO3)nc2c(N)ncnc21 [PU-H71] |  |  |  |  |  |  |  |  |  | 110
Nc1nc(N)c2c(n1)NC(c1ccc(Cl)cc1)CC(c1cccc(Nc3ccncc3)c1)=N2 (stereo not drawn) [UV797, Pyridyl-amino-pyrimido-diazepine] | 353 ± 19 |  | > 200 µM | 2000 | 5 |  |  |  |  | 
CC(=O)N1N=C(c2cccc(Nc3ccncc3)c2)CC1c1ccccc1 (stereo not drawn) [UV292] | 660 ± 200 | < 1000 | >100 µM | 3000 | 5 |  |  |  |  | 
